# Assay results published in ChEMBL document CHEMBL5230159, “Targeting Metalloenzymes by Boron-Containing Metal-Binding Pharmacophores” (J Med Chem, 2021).
# What was measured:
# [1] = Inhibition of Escherichia coli NDM-1
# [2] = Inhibition of Escherichia coli VIM-2
# BlaVIM-1 = BlaVIM-1 (Escherichia coli, UniProt Q8GDC1); test: Inhibition of Escherichia coli VIM-1
# [3] = Inhibition of Escherichia coli IMP-1
# Arginase-1 [4] = molecular target: T1, Arginase-1 (Rattus norvegicus, UniProt P07824); test: Binding affinity to rat Arg I
# T1 sequence (P07824 whole entry): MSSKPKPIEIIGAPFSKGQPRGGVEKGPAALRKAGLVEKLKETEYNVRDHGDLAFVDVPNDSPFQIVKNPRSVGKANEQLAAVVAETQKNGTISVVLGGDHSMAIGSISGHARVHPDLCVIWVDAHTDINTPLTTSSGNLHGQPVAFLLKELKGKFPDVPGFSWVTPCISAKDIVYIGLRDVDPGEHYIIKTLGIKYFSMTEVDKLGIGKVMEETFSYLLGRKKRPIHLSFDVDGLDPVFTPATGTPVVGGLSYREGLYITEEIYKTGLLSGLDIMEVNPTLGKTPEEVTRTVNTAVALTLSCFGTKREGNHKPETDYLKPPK
# [5] = molecular target: T2, 3',5'-cyclic-AMP phosphodiesterase 4B (Homo sapiens, UniProt Q07343); test: Inhibition of human PDE4 catalytic domain expressed in Escherichia coli
# T2 sequence (Q07343 whole entry, the tested form may be a part): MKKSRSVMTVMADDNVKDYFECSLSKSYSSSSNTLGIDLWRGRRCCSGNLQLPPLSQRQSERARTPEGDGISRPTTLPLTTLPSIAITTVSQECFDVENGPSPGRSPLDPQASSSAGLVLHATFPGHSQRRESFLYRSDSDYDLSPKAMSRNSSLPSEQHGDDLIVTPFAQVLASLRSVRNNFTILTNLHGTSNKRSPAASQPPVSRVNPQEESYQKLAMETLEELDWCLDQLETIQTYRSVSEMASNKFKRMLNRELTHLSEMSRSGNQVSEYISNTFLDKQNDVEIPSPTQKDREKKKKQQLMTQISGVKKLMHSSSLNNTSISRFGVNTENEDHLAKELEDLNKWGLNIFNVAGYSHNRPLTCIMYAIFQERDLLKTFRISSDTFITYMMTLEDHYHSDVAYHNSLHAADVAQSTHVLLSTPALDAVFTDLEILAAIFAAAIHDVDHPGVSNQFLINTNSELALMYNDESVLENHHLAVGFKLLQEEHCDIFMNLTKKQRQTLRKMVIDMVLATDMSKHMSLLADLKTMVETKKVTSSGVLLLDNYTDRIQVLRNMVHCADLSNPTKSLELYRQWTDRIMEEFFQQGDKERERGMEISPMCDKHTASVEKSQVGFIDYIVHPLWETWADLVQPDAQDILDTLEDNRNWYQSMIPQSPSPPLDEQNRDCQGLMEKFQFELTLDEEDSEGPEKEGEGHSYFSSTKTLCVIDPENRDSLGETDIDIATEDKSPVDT
# [6] = molecular target: T3, Arginase-2, mitochondrial (Homo sapiens, UniProt P78540); test: Binding affinity to human Arg II
# T3 sequence (P78540 whole entry): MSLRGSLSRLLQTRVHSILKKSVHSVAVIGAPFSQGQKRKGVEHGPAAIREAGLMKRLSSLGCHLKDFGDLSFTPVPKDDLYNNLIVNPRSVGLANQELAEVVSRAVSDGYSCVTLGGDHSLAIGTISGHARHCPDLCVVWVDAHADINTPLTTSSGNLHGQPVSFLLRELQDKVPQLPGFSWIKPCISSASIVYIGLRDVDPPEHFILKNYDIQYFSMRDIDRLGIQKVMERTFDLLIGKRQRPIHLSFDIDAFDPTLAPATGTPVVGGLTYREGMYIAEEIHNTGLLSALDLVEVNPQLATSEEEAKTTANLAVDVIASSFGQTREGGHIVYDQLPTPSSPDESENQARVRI
# [7] = Inhibition of beta-lactamase TEM-1 (unknown origin); parameters: species or system Bacteria
# [8] = Oral bioavailability in C57BL/6 mouse at 25 to 50 mg/kg by LC-MS/MS analysis; format: ADME, organism-based; details: in vivo, dose 25-50 mg/kg
# [9] = Clearance in C57BL/6 mouse at 25 to 50 mg/kg, po by LC-MS/MS analysis; format: ADME, organism-based; details: in vivo, dose 25-50 mg/kg
# Arginase-1 [10] = molecular target: T1, Arginase-1; test: Inhibition of rat liver arginase using L-arginine as substrate incubated for 10 mins followed by substrate addition by scintillation counting analysis; format: tissue-based
# Carbonic anhydrase 9 = Carbonic anhydrase 9 (Homo sapiens, UniProt Q16790); test: Binding affinity to human CA9 assessed as inhibition constant
# Carbonic anhydrase 12 = Carbonic anhydrase 12 (Homo sapiens, UniProt O43570); test: Binding affinity to human CA12 assessed as inhibition constant
# Sequence of Carbonic anhydrase 12 (O43570 whole entry, the tested form may be a part): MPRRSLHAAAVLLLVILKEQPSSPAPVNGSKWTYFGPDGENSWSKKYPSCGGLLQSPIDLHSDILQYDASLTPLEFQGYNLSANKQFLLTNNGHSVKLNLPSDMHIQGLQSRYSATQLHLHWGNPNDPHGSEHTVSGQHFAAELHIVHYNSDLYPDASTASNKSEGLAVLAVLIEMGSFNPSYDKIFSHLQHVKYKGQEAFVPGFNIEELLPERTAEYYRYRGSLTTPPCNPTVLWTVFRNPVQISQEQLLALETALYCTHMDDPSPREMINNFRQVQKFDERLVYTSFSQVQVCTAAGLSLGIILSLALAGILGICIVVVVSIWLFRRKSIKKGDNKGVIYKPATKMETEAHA
# [11] = molecular target: T2, 3',5'-cyclic-AMP phosphodiesterase 4B; test: Inhibition of human PDE4 catalytic domain expressed in Escherichia coli at 10 uM relative to control
# Autotaxin [12] = molecular target: T4, Autotaxin (Homo sapiens, UniProt Q13822); test: Inhibition of human recombinant ATX using ABTS as substrate by absorbance based analysis
# Arginase-1 [13] = molecular target: T5, Arginase-1 (Homo sapiens, UniProt P05089); test: Inhibition of human Arg I
# T5 sequence (P05089 whole entry): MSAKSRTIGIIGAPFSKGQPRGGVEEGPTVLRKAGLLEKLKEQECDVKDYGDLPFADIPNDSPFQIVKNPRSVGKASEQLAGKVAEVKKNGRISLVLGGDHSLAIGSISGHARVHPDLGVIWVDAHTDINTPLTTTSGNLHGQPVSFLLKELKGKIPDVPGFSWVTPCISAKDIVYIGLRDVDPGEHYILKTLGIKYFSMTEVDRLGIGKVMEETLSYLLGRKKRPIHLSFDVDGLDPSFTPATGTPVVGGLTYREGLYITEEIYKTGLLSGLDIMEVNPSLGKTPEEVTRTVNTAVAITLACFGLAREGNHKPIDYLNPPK
# Carbonic anhydrase 1 = Carbonic anhydrase 1 (Homo sapiens, UniProt P00915); test: Binding affinity to human CA1 assessed as inhibition constant
# Sequence of Carbonic anhydrase 1 (P00915 whole entry): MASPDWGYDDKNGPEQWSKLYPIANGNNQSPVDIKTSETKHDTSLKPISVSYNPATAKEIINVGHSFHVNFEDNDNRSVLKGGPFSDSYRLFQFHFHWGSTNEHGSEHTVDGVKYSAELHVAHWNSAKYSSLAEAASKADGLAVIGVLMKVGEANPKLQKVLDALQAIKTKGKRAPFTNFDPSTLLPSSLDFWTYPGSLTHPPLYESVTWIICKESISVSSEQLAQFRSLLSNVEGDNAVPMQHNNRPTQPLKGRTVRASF
# Arginase-1 [14] = molecular target: T5, Arginase-1; test: Binding affinity to human Arg I
# Autotaxin [15] = molecular target: T4, Autotaxin; test: Inhibition of human recombinant ATX
smiles,measurement,setting,value
NCCN[C@H]1CC[C@H](CC(=O)N[C@H]2Cc3cccc(C(=O)O)c3OB2O)CC1,IC50,[1],0.01 µM
same,IC50,[2],0.0005 µM
same,IC50,BlaVIM-1,0.0079 µM
same,IC50,[3],2.5 µM
NC(CCCCC(=O)O)C(=O)O (stereo not drawn),Kd,Arginase-1 [4],30000 µM
N[C@@H](CCCCC=O)C(=O)O,Ki,Arginase-1 [4],60 µM
N#Cc1ccc(Oc2ccc3c(c2)COB3O)cc1C#N,IC50,[5],0.06 µM
OB(O)/C=C/Cc1ccccc1,Ki,[6],0.089 µM
CC(=O)N[C@H]1Cc2cccc(C(=O)O)c2OB1O,IC50,[7],0.013 µM
C[C@H](N)C(=O)N1C[C@H](CCCB(O)O)[C@](N)(C(=O)O)C1,bioavailability,[8],91%
same,CL/F,[9],0.6 L/h/kg
N[C@@H](CC/C=C/B(O)O)C(=O)O,IC50,Arginase-1 [10],15 µM
N#Cc1ccc(Oc2ccc3c(c2)COB3O)nc1,IC50,[5],0.18 µM
OB1OCc2ccc(NC(=S)Nc3ccc(C(F)(F)F)cc3)cc21,Ki,Carbonic anhydrase 9,0.093 µM
same,Ki,Carbonic anhydrase 12,0.071 µM
CCOc1nc(-c2cncc(C3COB(O)C3)c2)c(F)cc1OC (stereo not drawn),IC50,[5],0.00012 µM
N#Cc1ccc(Oc2ccc3c(c2)COB3O)cc1 [CRISABOROLE],IC50,[5],0.11 µM
O=C(O)c1ccc(Oc2ccc3c(c2)COB3O)nc1,IC50,[5],> 0.01 µM
same,inhibition,[11],5%
N#Cc1ccc(Oc2ccc3c(c2)COB3O)cc1OCCO,IC50,[5],0.024 µM
O=C1S/C(=C\c2ccc(OCc3ccccc3B(O)O)cc2)C(=O)N1Cc1ccc(F)cc1,IC50,Autotaxin [12],> 0.005 µM
CC(=O)OCCOc1cc(Oc2ccc3c(c2)COB3O)ccc1C#N,IC50,[5],0.0007 µM
CCOC(=O)c1ccc(Oc2ccc3c(c2)COB3O)nc1,IC50,[5],0.047 µM
N[C@@H](CCCCB(O)O)C(=O)O,IC50,Arginase-1 [13],1.45 µM
O=C(O)c1cccc2c1OB(O)[C@@H](NC(=O)C1CCCCC1)C2,IC50,[1],2.04 µM
same,IC50,[2],0.051 µM
COc1ccc(C)cc1NC(=O)Nc1ccc2c(c1)B(O)OC2,Ki,Carbonic anhydrase 9,0.414 µM
same,Ki,Carbonic anhydrase 1,0.098 µM
same,Ki,Carbonic anhydrase 12,0.069 µM
NC(Cc1ccc(B(O)O)cc1)C(=O)O (stereo not drawn),IC50,Arginase-1 [10],6000 µM
N[C@@H](CCCC[N+](=O)[O-])C(=O)O,Kd,Arginase-1 [14],60 µM
O=C1N=C(N2CCN(Cc3ccc(C(=O)O)cc3)CC2)S/C1=C\c1ccc(Cl)c(Cl)c1,IC50,Autotaxin [15],0.025 µM
Nc1nccn1CCC[C@H](N)C(=O)O,Ki,Arginase-1 [14],30000 µM
